According to US20150284335A1, “Benzoimidazoles as prolyl hydroxylase inhibitors” (Janssen Pharmaceutica NV, priority 2008, published 2015):
Marks after values point to notes of the source that are not given here.

Columns and labels:
PHD2181-417 = target: T1, PHD2181-417 (Homo sapiens, UniProt Q9GZT9); experiment: PHD enzyme activity assay ([14C]-succinic acid production); assay type: biochemical; conditions: inhibition of PHD2181-417 activity; HIF-1α peptide 10 μM, [5-14C]-2-oxoglutaric acid, 10 minutes; read-out: Enzyme pIC50 (converted);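 note: enzyme expressed in E. coli BL21, assayed in Tris-HCl pH 7.5 with catalase, DTT and ascorbate, [14C]-succinic acid beta-counted after DNP precipitation of residual 2-oxoglutarate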
T1 construct: histidine tag (N, cleaved yes); Smt3 (SUMO) tag (N, cleaved yes); made in house; host or cells: E. coli BL21 (pBAD vector)

Hep-3B cells = experiment: Cellular assay: EPO secretion in Hep-3B cells; assay type: cell-based, human; conditions: 24 hours, percent of EPO secretion relative to assay control compound
[1] = final compound concentration of 10 μM
[2] = final compound concentration 100 μM

T1 sequence (Q9GZT9 181-417): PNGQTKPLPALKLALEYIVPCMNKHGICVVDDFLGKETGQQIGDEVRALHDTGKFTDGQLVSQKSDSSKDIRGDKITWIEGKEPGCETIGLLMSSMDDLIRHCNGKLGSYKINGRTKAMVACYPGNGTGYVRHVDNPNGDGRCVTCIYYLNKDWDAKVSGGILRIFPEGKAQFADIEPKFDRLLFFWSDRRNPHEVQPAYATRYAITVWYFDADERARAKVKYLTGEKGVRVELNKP

| IC50 (PHD2181-417) [nM] | Structure (SMILES) | Cellular % EPO Stimulation (Hep-3B cells; [1]) | Cellular % EPO Stimulation (Hep-3B cells; [2]) [%] |
| --- | --- | --- | --- |
| 794 | Cc1cc2nc(-n3cc(C(=O)O)cn3)[nH]c2cc1C [Example 36, 1-(5,6-Dimethyl-1H-benzoimidazol-2-yl)-1H-pyrazole-4-carboxylic acid] | – | – |
| 158 | O=C(O)c1cnn(-c2nc3c(Cl)cc(C(F)(F)F)cc3[nH]2)c1 [Example 39, 1-(4-Chloro-6-trifluoromethyl-1H-benzoimidazol-2-yl)-1H-pyrazole-4-carboxylic acid] | – | – |
| 398 | COc1cc2nc(-n3cc(C(=O)O)cn3)[nH]c2cc1OC [Example 40, 1-(5,6-Dimethoxy-1H-benzoimidazol-2-yl)-1H-pyrazole-4-carboxylic acid] | – | – |
| 7940 | Cc1ccc2[nH]c(-n3cc(C(=O)O)cn3)nc2c1C [Example 41, 1-(4,5-Dimethyl-1H-benzoimidazol-2-yl)-1H-pyrazole-4-carboxylic acid] | – | – |
| 50.1 | O=C(O)c1cnn(-c2nc3cc(-c4cccc(OCc5ccccc5)c4)ccc3[nH]2)c1 [Example 46, 1-[5-(3-Benzyloxy-phenyl)-1H-benzoimidazol-2-yl]-1H-pyrazole-4-carboxylic acid] | – | – |
| 200 | O=C(O)c1cnn(-c2nc3cc(-c4ccc(OCc5ccccc5)cc4)ccc3[nH]2)c1 [Example 47, 1-[5-(4-Benzyloxy-phenyl)-1H-benzoimidazol-2-yl]-1H-pyrazole-4-carboxylic acid] | – | – |
| 79.4 | O=C(O)c1cnn(-c2nc3cc(-c4cccc(C(F)(F)F)c4)ccc3[nH]2)c1 [Example 48, 1-[5-(3-Trifluoromethyl-phenyl)-1H-benzoimidazol-2-yl]-1H-pyrazole-4-carboxylic acid] | – | – |
| 79.4 | O=C(O)c1cnn(-c2nc3cc(-c4ccc(Cl)c(Cl)c4)ccc3[nH]2)c1 [Example 49, 1-[5-(3,4-Dichloro-phenyl)-1H-benzoimidazol-2-yl]-1H-pyrazole-4-carboxylic acid] | – | – |
| > 100000 | O=C(O)c1cn(-c2nc3cc(Br)ccc3[nH]2)nc1C(F)(F)F [Example 55, 1-(5-Bromo-1H-benzoimidazol-2-yl)-3-trifluoromethyl-1H-pyrazole-4-carboxylic acid] | – | – |
| 63100 | Cc1nn(-c2nc3cc(Br)ccc3[nH]2)c(C)c1C(=O)O [Example 57, 1-(5-Bromo-1H-benzoimidazol-2-yl)-3,5-dimethyl-1H-pyrazole-4-carboxylic acid] | – | – |
| 251 | O=C(O)c1cnn(-c2nc3cc(-c4ccc(O)cc4)ccc3[nH]2)c1 [Example 59, 1-[5-(4-Hydroxy-phenyl)-1H-benzoimidazol-2-yl]-1H-pyrazole-4-carboxylic acid] | – | – |
| 316 | O=C(O)c1cnn(-c2nc3cc(-c4cccc(O)c4)ccc3[nH]2)c1 [Example 60, 1-[5-(3-Hydroxy-phenyl)-1H-benzoimidazol-2-yl]-1H-pyrazole-4-carboxylic acid] | – | – |
| 501 | O=C(O)c1cnn(-c2nc3cc(Cl)ccc3[nH]2)c1 [Example 61, 1-(5-Chloro-1H-benzoimidazol-2-yl)-1H-pyrazole-4-carboxylic acid] | – | – |
| 398 | Cc1c(Br)cc2nc(-n3cc(C(=O)O)cn3)[nH]c2c1C [Example 62, 1-(5-Bromo-6,7-dimethyl-1H-benzoimidazol-2-yl)-1H-pyrazole-4-carboxylic acid] | – | – |

Further lines, the compound ahead of its results:

| Structure (SMILES) | IC50 (PHD2181-417) [nM] | Cellular % EPO Stimulation (Hep-3B cells; [1]) | Cellular % EPO Stimulation (Hep-3B cells; [2]) [%] |
| --- | --- | --- | --- |
| CC(NC(=O)c1nc2ccccc2[nH]1)C(=O)O (stereo in doubt) [Example 50, (R)-2-[(1H-Benzoimidazole-2-carbonyl)-amino]-propionic acid] | > 100000 | 9.50* % | – |
| O=C(NC(CO)C(=O)O)c1nc2ccccc2[nH]1 (stereo in doubt) [Example 51, (R)-2-[(1H-Benzoimidazole-2-carbonyl)-amino]-3-hydroxy-propionic acid] | 20000 | 0.73* % | – |
| O=C(O)CNC(=O)c1nc2ccccc2[nH]1 [Example 1, [(1H-Benzoimidazole-2-carbonyl)-amino]-acetic acid] | – | – | 23.9 |
| C[C@H](NC(=O)c1nc2ccccc2[nH]1)C(=O)O [Example 2, (S)-2-[(1H-Benzoimidazole-2-carbonyl)-amino]-propionic acid] | 39800 | – | 66.03 |
| C[C@H](NC(=O)c1nc2cc(Cl)c(Cl)cc2[nH]1)C(=O)O [Example 4, (S)-2-[(5,6-Dichloro-1H-benzoimidazole-2-carbonyl)-amino]-propionic acid] | 25100 | – | 7.70 |
| O=C(O)CNC(=O)c1nc2ccc([N+](=O)[O-])cc2[nH]1 [Example 5, [(6-Nitro-1H-benzoimidazole-2-carbonyl)-amino]-acetic acid] | 5010 | – | 0.00 |
| O=C(O)CNC(=O)c1nc2cc(C(F)(F)F)cc(C(F)(F)F)c2[nH]1 [Example 6, [(5,7-Bis-trifluoromethyl-1H-benzoimidazole-2-carbonyl)-amino]-acetic acid] | – | – | 4.20 |
| C[C@H](NC(=O)c1nc2cc(C(F)(F)F)cc(C(F)(F)F)c2[nH]1)C(=O)O [Example 7, (S)-2-[(5,7-Bis-trifluoromethyl-1H-benzoimidazole-2-carbonyl)-amino]-propionic acid] | – | – | 1.60 |
| O=C(O)CNC(=O)c1nc2cc(I)ccc2[nH]1 [Example 8, [(5-Iodo-1H-benzoimidazole-2-carbonyl)-amino]-acetic acid] | 39800 | – | 3.80 |
| O=C(O)CNC(=O)c1nc2ccc(Br)cc2[nH]1 [Example 9, [(6-Bromo-1H-benzoimidazole-2-carbonyl)-amino]-acetic acid] | – | – | 9.80 |
| C[C@H](NC(=O)c1nc2ccc(F)cc2[nH]1)C(=O)O [Example 10, (S)-2-[(6-Fluoro-1H-benzoimidazole-2-carbonyl)-amino]-propionic acid] | > 100000 | – | 14.74 |
| C[C@@H](NC(=O)c1nc2ccc(F)cc2[nH]1)C(=O)O [Example 11, (R)-2-[(6-Fluoro-1H-benzoimidazole-2-carbonyl)-amino]-propionic acid] | 79400 | – | 23.93 |
| COc1ccc2nc(C(=O)NCC(=O)O)[nH]c2c1 [Example 12, [(6-Methoxy-1H-benzoimidazole-2-carbonyl)-amino]-acetic acid] | – | – | 0.50 |
| O=C(O)CNC(=O)c1nc2cc(-c3cccc(OCc4cccc(Cl)c4)c3)ccc2[nH]1 [Example 13, ({5-[3-(3-Chloro-benzyloxy)-phenyl]-1H-benzoimidazole-2-carbonyl}-amino)-acetic acid] | 1580 | – | 1.20 |
| O=C(O)CNC(=O)c1nc2cc(-c3cccc(OCc4ccccc4Cl)c3)ccc2[nH]1 [Example 14, ({5-[3-(2-Chloro-benzyloxy)-phenyl]-1H-benzoimidazole-2-carbonyl}-amino)-acetic acid] | 2510 | – | −3.80 |
| O=C(O)CNC(=O)c1nc2cc(-c3cccc(OCc4ccc(Cl)cc4)c3)ccc2[nH]1 [Example 15, ({5-[3-(4-Chloro-benzyloxy)-phenyl]-1H-benzoimidazole-2-carbonyl}-amino)-acetic acid] | 2510 | – | −3.90 |
| O=C(O)CNC(=O)c1nc2cc(-c3cccc(OCc4cccc(F)c4)c3)ccc2[nH]1 [Example 16, ({5-[3-(3-Fluoro-benzyloxy)-phenyl]-1H-benzoimidazole-2-carbonyl}-amino)-acetic acid] | 2510 | – | 2.10 |
| O=C(O)CNC(=O)c1nc2cc(-c3cccc(OCc4ccccc4F)c3)ccc2[nH]1 [Example 17, ({5-[3-(2-Fluoro-benzyloxy)-phenyl]-1H-benzoimidazole-2-carbonyl}-amino)-acetic acid] | 5010 | – | 1.50 |
| O=C(O)CNC(=O)c1nc2cc(-c3ccc(Oc4ccccc4)cc3)ccc2[nH]1 [Example 18, {[5-(4-Phenoxy-phenyl)-1H-benzoimidazole-2-carbonyl]-amino}-acetic acid] | 7940 | – | 2.00 |
| O=C(O)CNC(=O)c1nc2cc(-c3cc(F)cc(OCc4ccccc4)c3)ccc2[nH]1 [Example 19, {[5-(3-Benzyloxy-5-fluoro-phenyl)-1H-benzoimidazole-2-carbonyl]-amino}-acetic acid] | 6310 | – | −3.80 |
| O=C(O)CNC(=O)c1nc2cc(-c3cnc4ccccc4c3)ccc2[nH]1 [Example 20, [(5-Quinolin-3-yl-1H-benzoimidazole-2-carbonyl)-amino]-acetic acid] | 1580 | – | 8.26 |
| O=C(O)c1cnn(-c2nc3cc(-c4cccc(OCc5cccc(Cl)c5)c4)ccc3[nH]2)c1 [Example 43, 1-{5-[3-(3-Chloro-benzyloxy)-phenyl]-1H-benzoimidazol-2-yl}-1H-pyrazole-4-carboxylic acid] | 31.6 | – | – |
| O=C(O)c1cnn(-c2nc3cc(-c4cccc(OCc5ccccc5Cl)c4)ccc3[nH]2)c1 [Example 44, 1-{5-[3-(2-Chloro-benzyloxy)-phenyl]-1H-benzoimidazol-2-yl}-1H-pyrazole-4-carboxylic acid] | 25.1 | – | – |
| C[C@@H](NC(=O)c1nc2cc(C(F)(F)F)cc(C(F)(F)F)c2[nH]1)C(=O)O [Example 52, (R)-2-[(5,7-Bis-trifluoromethyl-1H-benzoimidazole-2-carbonyl)-amino]-propionic acid] | – | – | 17.80 |
| O=C(O)c1cn(-c2nc3cc(Cl)c(Cl)cc3[nH]2)nc1C(F)(F)F [Example 56, 1-(5,6-dichloro-1H-benzoimidazol-2-yl)-3-trifluoromethyl-1H-pyrazole-4-carboxylic acid] | > 10000 | – | – |
| Cc1nn(-c2nc3cc(Cl)c(Cl)cc3[nH]2)c(C)c1C(=O)O [Example 58, 1-(5,6-Dichloro-1H-benzoimidazol-2-yl)-3,5-dimethyl-1H-pyrazole-4-carboxylic acid] | > 10000 | – | – |
